Measurements as given in patent publication US8586552B2, “4,6-substituted 2,5-dideoxystreptamine aminoglycoside antibiotics” (SelectX Pharmaceuticals, Inc., priority 2012, dated 2013).
Values after ≈ are worked out from the molar mass of the structure shown. Each block holds one compound with its values, some of them ahead of it.

Columns and labels:
Assay type in all cases: cell-based
[1] = test system: Pseudomonas aeruginosa PR2 (clinical isolate with intermediate aminoglycoside resistance); assay: MIC against Pseudomonas aeruginosa clinical isolate PR2; settings: Pseudomonas aeruginosa resistant strain PR2
Source text: (§1) Pseudomonas aeruginosa is a prominent nosocomial pathogen. In addition to intrinsic antibiotic resistance to several antibiotics, Pseudomonas has acquired multiple additional mechanisms of resistance. As a result, therapeutic options for the treatment of infections caused by Pseudomonas aeruginosa are limited. We acquired clinical isolates of Pseudomonas aeruginosa (Micromyx LLC, Kalamazoo, Mich.), and used this panel to test compounds for Pseudomonicidal activity. […] For each strain and antibiotic, the mechanism(s) of resistance was inferred from the resistance profile. The presence of specific AGMEs was confirmed by colony PCR.

[2] = test system: Pseudomonas aeruginosa PR3 (high-level, efflux-mediated, pan-aminoglycoside resistance); assay: MIC against Pseudomonas aeruginosa clinical isolate PR3; settings: for MIC PR3: Pseudomonas aeruginosa resistant strain PR3
Source text: as §1

[3] = test system: Pseudomonas aeruginosa (Pae, PAWT, ATCC #27853); assay: MIC against Pseudomonas aeruginosa reference strain PAWT; settings: Pseudomonas aeruginosa wild type PAWT
Source text: (§2) For evaluation of efficacy, we assembled panels of representative gram-negative pathogens, including Pseudomonas aeruginosa (Pae, PAWT, ATCC #27853), Klebsiella pneumoniae (Kpn, KPWT, ATCC #700603), Acinetobacter baumannii (Aba, ABWT, ATCC #BAA-747) and Escherichia coli (Eco, ECWT, ATCC #25922). These reference strains are useful indicator organisms to characterize compound activity against bacteria from a pathogenic genus in the absence of multiple resistance mechanisms. Two strains (PAWT and ECWT) are reference strains cited within the Clinical and Laboratory Standards Institute (CLSI) Standards for susceptibility testing by Minimum Inhibitory Concentration (MIC) (SXPS2) and are well suited for quality control. ABWT and ECWT are widely susceptible to aminoglycoside antibiotics, whereas PAWT and KPWT harbor a single aminoglycoside-modifying enzyme (AGME) that targets 4,6-substituted-2-deoxystreptamine AGs. […]

[4] = test system: Pseudomonas aeruginosa PR1 (clinical isolate with intermediate aminoglycoside resistance); assay: MIC against Pseudomonas aeruginosa clinical isolate PR1; settings: Pseudomonas aeruginosa resistant strain PR1
Source text: as §1

[5] = test system: more than fifty resistant contemporary clinical isolates of Pseudomonas aeruginosa; assay: MIC90 against panel of resistant clinical isolates of Pseudomonas aeruginosa; settings: Pseudomonas aeruginosa
Source text: To assess this, a panel of more than fifty resistant contemporary clinical isolates of Pseudomonas aeruginosa were obtained from multiple sources including JMI Laboratories (North Liberty, Iowa), Pfizer (Groton, Conn.), Micromyx (Kalamazoo, Mich.), Dr. J. Chow (Wayne State University). Strains were characterized for resistance to a wide variety of classes of antibiotics including aminoglycosides, β-lactams and fluoroquinolones. […] This reflects the difficulty in treating clinical Pseudomonas aeruginosa infections. […] Using this stringent panel, we tested a subset of compounds of the invention (Table 4).

[6] = test system: fifty resistant contemporary clinical isolates of Klebsiella pneumoniae; assay: MIC90 against panel of resistant clinical isolates of Klebsiella pneumoniae; settings: Klebsiella pneumoniae; fifty resistant contemporary clinical isolates, reference antibiotics
Source text: Using this stringent Klebsiella pneumoniae panel, we tested a subset of compounds of the invention.

[7] = test system: Klebsiella pneumoniae (Kpn, KPWT, ATCC #700603); assay: MIC against Klebsiella pneumoniae reference strain KPWT; settings: ATCC700603; Klebsiella pneumoniae KPWT, Table 2
Source text: as §2, with “These reference strains are useful indicator organisms to characterize compound activity against bacteria from a pathogenic genus in the absence of multiple resistance mechanisms.” left out

[8] = test system: Klebsiella pneumoniae screening panel KPWT, KR1, KR2, KR3; assay: Klebsiella pneumoniae screening panel (KPWT, KR1, KR2, KR3), reference AGs
Source text: Klebsiella pneumoniae (Kpn) and Escherichia coli (Eco) are gram-negative (like Pae), enteric pathogens with increasing clinical relevance. Many clinical isolates of Kpn and Eco harbor extended-spectrum beta-lactamases and are no longer sensitive to most beta-lactam antibiotics. We acquired clinical isolates of Klebsiella pneumoniae and Escherichia coli (Micromyx LLC, Kalamazoo, Mich.) and used this panel to test compounds for anti-enteric activity.

[9] = test system: Acinetobacter baumannii (Aba, ABWT, ATCC #BAA-747); assay: MIC against Acinetobacter baumannii reference strain ABWT; settings: ATCCBAA747
Source text: as §2

[10] = test system: Escherichia coli (Eco, ECWT, ATCC #25922); assay: MIC against Escherichia coli reference strain ECWT; settings: ATCC25922
Source text: For evaluation of efficacy, we assembled panels of representative gram-negative pathogens, including Pseudomonas aeruginosa (Pae, PAWT, ATCC #27853), Klebsiella pneumoniae (Kpn, KPWT, ATCC #700603), Acinetobacter baumannii (Aba, ABWT, ATCC #BAA-747) and Escherichia coli (Eco, ECWT, ATCC #25922). These reference strains are useful indicator organisms to characterize compound activity against bacteria from a pathogenic genus in the absence of multiple resistance mechanisms. Two strains (PAWT and ECWT) are reference strains cited within the Clinical and Laboratory Standards Institute (CLSI) Standards for susceptibility testing by Minimum Inhibitory Concentration (MIC) (SXPS2) and are well suited for quality control. ABWT and ECWT are widely susceptible to aminoglycoside antibiotics, whereas PAWT and KPWT harbor a single aminoglycoside-modifying enzyme (AGME) that targets 4,6-substituted-2-deoxystreptamine AGs.

SMILES: NCC[C@H](O)C(=O)N[C@@H]1C[C@H](N)[C@@H](O[C@H]2O[C@H](CN)[C@@H](O)[C@H](O)[C@H]2O)[C@@H](F)[C@H]1O[C@H]1O[C@H](CNC(=O)[C@H](N)CCCNC(N)=O)[C@@H](O)[C@H](N)[C@H]1O [SXP1212-56″-7]
MIC PR2 [1]: 16 µg/mL (≈ 21.5 µM)
MIC PR3 [2]: 128 µg/mL (≈ 172 µM)
MIC PAWT [3]: 4 µg/mL (≈ 5.38 µM)
MIC PR1 [4]: 16 µg/mL (≈ 21.5 µM)

SMILES: CC(C)[C@H](N)C(=O)NC[C@H]1O[C@H](O[C@@H]2[C@H](F)[C@H](O[C@H]3O[C@H](CN)[C@@H](O)[C@H](O)[C@H]3O)[C@@H](N)C[C@H]2NC(=O)[C@@H](O)CCN)[C@H](O)[C@@H](N)[C@@H]1O [SXP1212-56″-8]
MIC PR2 [1]: 8 µg/mL (≈ 11.7 µM)
MIC PR3 [2]: 64 µg/mL (≈ 93.3 µM)
MIC PAWT [3]: 4 µg/mL (≈ 5.83 µM)
MIC PR1 [4]: 8 µg/mL (≈ 11.7 µM)

MIC90 [5]: ≥ 64 µg/mL
MIC90 [6]: ≥ 64 µg/mL
SMILES: C[C@H]1[C@H](NC(=O)/C(=N\OC(C)(C)C(=O)O)c2csc(N)n2)C(=O)N1S(=O)(=O)O [aztreonam]

MIC90 [5]: ≥ 64 µg/mL
MIC90 [6]: ≥ 64 µg/mL
SMILES: CO/N=C(\C(=O)N[C@@H]1C(=O)N2C(C(=O)[O-])=C(C[N+]3(C)CCCC3)CS[C@H]12)c1csc(N)n1 [cefepime]

MIC90 [5]: ≥ 64 µg/mL
MIC90 [6]: ≥ 64 µg/mL
SMILES: CC(C)(O/N=C(\C(=O)N[C@@H]1C(=O)N2C(C(=O)[O-])=C(C[n+]3ccccc3)CS[C@H]12)c1csc(N)n1)C(=O)O [ceftazidime]

MIC90 [5]: ≥ 64 µg/mL
MIC90 [6]: ≥ 64 µg/mL
SMILES: CO/N=C(\C(=O)N[C@@H]1C(=O)N2C(C(=O)O)=C(CSc3nc(=O)c(=O)[nH]n3C)CS[C@H]12)c1csc(N)n1 [ceftriaxone]

SMILES: NC[C@@H]1CC[C@@H](N)[C@@H](O[C@H]2[C@H](O)[C@@H](O[C@H]3O[C@H](CO)[C@@H](O)[C@H](N)[C@H]3O)[C@H](N)C[C@@H]2N)O1 [dibekacin]
MIC [7]: 16 µg/mL (≈ 35.4 µM)
potency against Klebsiella pneumoniae test panel [8]: limited to no activity
MIC [1]: > 64 µg/mL
MIC [9]: 0.25 µg/mL (≈ 0.554 µM)
MIC [10]: 1 to 2 µg/mL (≈ 2.21 to 4.43 µM)
MIC ([2]; Pseudomonas aeruginosa, read-out: MIC PR3): > 64 µg/mL
MIC ([3]; ATCC27853): 0.25 to 0.5 µg/mL (≈ 0.554 to 1.11 µM)
MIC PAWT ([3]; listed as DIB): 0.25 to 0.5 µg/mL
MIC [4]: 4 µg/mL (≈ 8.86 µM)

MIC90 [5]: ≥ 64 µg/mL
MIC90 [6]: ≥ 64 µg/mL
SMILES: C[C@@H](O)[C@H]1C(=O)N2C(C(=O)O)=C(S[C@@H]3CN[C@H](CNS(N)(=O)=O)C3)[C@H](C)[C@H]12 [doripenem]

MIC90 [5]: ≥ 64 µg/mL
MIC90 [6]: ≥ 64 µg/mL
SMILES: C[C@@H](O)[C@H]1C(=O)N2C(C(=O)O)=C(S[C@@H]3CN[C@H](C(=O)Nc4cccc(C(=O)O)c4)C3)[C@H](C)[C@H]12 [ertapenem]

MIC90 [5]: ≥ 64 µg/mL
MIC90 [6]: ≥ 64 µg/mL
SMILES: C[C@@H](O)[C@H]1C(=O)N2C(C(=O)O)=C(SCCN=CN)C[C@H]12 [imipenem]
